Assay results reported in the supplement of paper PMC10307832.

How the values were obtained:
Test in all cases: relative viability (nuclei count vs DMSO), 5 days (fraction); higher = more cells survive
Pazopanib + Navitoclax = compound: Cc1ccc(Nc2nccc(N(C)c3ccc4c(C)n(C)nc4c3)n2)cc1S(N)(=O)=O [Pazopanib] + CC1(C)CCC(c2ccc(Cl)cc2)=C(CN2CCN(c3ccc(C(=O)NS(=O)(=O)c4ccc(N[C@H](CCN5CCOCC5)CSc5ccccc5)c(S(=O)(=O)C(F)(F)F)c4)cc3)CC2)C1 [Navitoclax] (partner 0.5 µM)
Outline: (§1)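 Lung cancer cell lines were seeded in 1536-well plates and dosed by pin tool the next day, with either a single drug or a fixed anchor-drug dose combined with five library-drug doses (not always all listed) spaced in √10 steps. Five days later, one step fixed the cells and stained their nuclei (final 0.05% Triton X-100, 1% formaldehyde, 1 ug/ml Hoechst), and nuclei were counted on 4× images. Relative viability is the nuclei count in treated wells divided by the count in vehicle wells, and each value is the median of duplicate plates.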

Pazopanib + Luminespib = compound: Cc1ccc(Nc2nccc(N(C)c3ccc4c(C)n(C)nc4c3)n2)cc1S(N)(=O)=O [Pazopanib] + CCNC(=O)c1noc(-c2cc(C(C)C)c(O)cc2O)c1-c1ccc(CN2CCOCC2)cc1 [Luminespib] (partner 0.01 µM)
Outline: as §1

Pazopanib + Dasatinib = compound: Cc1ccc(Nc2nccc(N(C)c3ccc4c(C)n(C)nc4c3)n2)cc1S(N)(=O)=O [Pazopanib] + Cc1nc(Nc2ncc(C(=O)Nc3c(C)cccc3Cl)s2)cc(N2CCN(CCO)CC2)n1 [Dasatinib] (partner 0.075 µM)
Outline: as §1

Pazopanib + AZD7762 = compound: Cc1ccc(Nc2nccc(N(C)c3ccc4c(C)n(C)nc4c3)n2)cc1S(N)(=O)=O [Pazopanib] + NC(=O)Nc1cc(-c2cccc(F)c2)sc1C(=O)N[C@H]1CCCNC1 [AZD7762] (partner 0.2 µM)
Outline: as §1

| Cell Line | relative viability (Pazopanib + Navitoclax; first compound 0.01 µM) | relative viability (Pazopanib + Navitoclax; first compound 0.03162 µM) | relative viability (Pazopanib + Navitoclax; first compound 0.1 µM) | relative viability (Pazopanib + Navitoclax; first compound 0.3162 µM) | relative viability (Pazopanib + Navitoclax; first compound 1 µM) | relative viability (Pazopanib + Luminespib; first compound 0.01 µM) | relative viability (Pazopanib + Luminespib; first compound 0.03162 µM) | relative viability (Pazopanib + Luminespib; first compound 0.3162 µM) | relative viability (Pazopanib + Luminespib; first compound 1 µM) | relative viability (Pazopanib + Dasatinib; first compound 0.01 µM) | relative viability (Pazopanib + Dasatinib; first compound 0.03162 µM) | relative viability (Pazopanib + Dasatinib; first compound 0.3162 µM) | relative viability (Pazopanib + Dasatinib; first compound 1 µM) | relative viability (Pazopanib + AZD7762; first compound 0.01 µM) | relative viability (Pazopanib + AZD7762; first compound 0.03162 µM) | relative viability (Pazopanib + AZD7762; first compound 1 µM) | relative viability (Pazopanib + Luminespib; first compound 0.1 µM) | relative viability (Pazopanib + Dasatinib; first compound 0.1 µM) | relative viability (Pazopanib + AZD7762; first compound 0.1 µM) | relative viability (Pazopanib + AZD7762; first compound 0.3162 µM) |
| --- | --- | --- | --- | --- | --- | --- | --- | --- | --- | --- | --- | --- | --- | --- | --- | --- | --- | --- | --- | --- |
| A549 | 1.16 | 1.18 | 1.21 | 1.21 | 1.26 | – | – | – | – | – | – | – | – | – | – | – | – | – | – | – |
| ABC-1 | – | – | – | – | – | 0.627 | 0.672 | 0.41 | 0.961 | 0.481 | 0.635 | 0.551 | 0.637 | 0.797 | 0.757 | 0.804 | – | – | – | – |
| COR-L23 | 0.971 | 1.08 | 0.985 | 0.978 | 1.06 | 0.644 | 0.791 | 0.654 | 0.785 | 0.512 | 0.503 | 0.449 | 0.56 | – | – | – | 0.72 | 0.553 | – | – |
| COR-L 105 | 0.891 | 0.698 | 0.787 | 0.732 | 0.773 | 1.06 | 0.539 | 0.909 | 0.787 | 0.351 | 0.296 | 0.453 | 0.406 | – | – | – | 0.765 | 0.327 | – | – |
| Calu-6 | 0.87 | 0.863 | 0.848 | 0.768 | 0.842 | – | – | – | – | – | – | – | – | – | – | – | – | – | – | – |
| EBC-1 | 0.364 | 0.436 | 0.454 | 0.442 | 0.427 | – | – | – | – | – | – | – | – | – | – | – | – | – | – | – |
| IA-LM | 0.815 | 0.782 | 0.778 | 0.792 | 0.625 | – | – | – | – | – | – | – | – | – | – | – | – | – | – | – |
| LCLC-103H | – | – | – | – | – | 0.861 | 1.02 | 0.937 | 1.05 | 0.314 | 0.472 | 0.451 | 0.459 | 0.576 | 0.805 | 0.822 | 1.03 | 0.495 | 0.897 | 0.792 |
| NCI-H358 | – | – | – | – | – | 0.398 | 0.374 | 0.337 | 0.441 | 0.157 | 0.152 | – | 0.258 | 0.484 | 0.571 | 0.558 | 0.284 | 0.158 | 0.693 | 0.633 |
| NCI-H520 | – | 1.18 | 0.955 | 1.05 | 0.98 | 0.234 | 0.235 | 0.218 | 0.214 | 0.142 | 0.183 | 0.145 | 0.25 | – | – | – | 0.227 | 0.213 | – | – |
| NCI-H522 | – | – | – | – | – | – | 0.912 | 1.06 | 1.07 | 0.614 | 0.865 | 0.897 | 0.918 | 0.679 | 0.667 | 0.857 | 1.13 | 0.968 | 1.09 | 1.03 |
| NCI-H650 | – | – | – | – | – | 0.682 | 0.773 | 0.813 | 0.735 | 0.398 | 0.511 | 0.427 | 0.482 | 0.948 | 1.07 | 0.904 | 0.669 | 0.449 | 1.09 | 0.942 |
| NCI-H661 | – | – | – | – | – | 0.926 | 0.927 | 1.02 | 0.953 | 0.908 | 0.894 | 0.931 | 1.15 | – | – | – | 0.958 | 0.815 | – | – |
| NCI-H1299 | 1.04 | 1.03 | 1.03 | 1.1 | 1.02 | – | – | – | – | – | – | – | – | – | – | – | – | – | – | – |
| NCI-H1563 | – | – | – | – | – | 0.476 | 0.507 | 0.519 | 0.526 | 0.473 | 0.451 | 0.485 | 0.5 | – | – | – | 0.497 | 0.471 | – | – |
| NCI-H1623 | – | – | – | – | – | 0.465 | 0.515 | 0.479 | 0.634 | 0.507 | 0.467 | 0.488 | 0.608 | – | – | – | 0.512 | 0.509 | – | – |
| NCI-H1648 | – | – | – | – | – | – | – | – | – | – | – | – | – | – | – | 0.796 | – | – | 0.668 | 0.711 |
| NCI-H1650 | 1.28 | 1.26 | 1.44 | 1.18 | 1.04 | 0.195 | 0.189 | 0.195 | 0.187 | 0.301 | 0.375 | 0.319 | 0.403 | – | – | – | 0.235 | 0.381 | – | – |
| NCI-H2009 | 1.19 | 1.18 | 1.2 | 1.11 | 0.979 | 1.04 | 0.989 | 0.955 | 0.854 | 0.279 | 0.324 | 0.335 | 0.226 | – | – | – | 0.988 | 0.298 | – | – |
| NCI-H2023 | 0.972 | 1 | 0.98 | 1.01 | 1.01 | 0.781 | 0.77 | 0.613 | 0.883 | 0.528 | 0.566 | 0.535 | 0.577 | – | – | – | 0.652 | 0.473 | – | – |
| NCI-H2228 | 0.847 | 1.1 | 1.03 | 0.98 | 0.913 | 0.142 | 0.135 | 0.155 | 0.177 | 0.589 | 0.561 | 0.481 | 0.457 | – | – | – | 0.153 | 0.383 | – | – |
| SK-LU-1 | 0.828 | 0.898 | 0.994 | 0.964 | 0.749 | 0.222 | 0.221 | 0.22 | 0.232 | 0.142 | 0.179 | 0.189 | 0.174 | – | – | – | 0.175 | 0.192 | – | – |
| SK-MES-1 | 1.29 | 1.32 | 1.42 | 1.3 | 1.15 | 0.846 | 0.79 | 0.913 | 0.75 | 0.361 | 0.34 | 0.474 | 0.383 | – | – | – | 0.746 | 0.414 | – | – |
| SW 1573 | 1.16 | 1.06 | 1.02 | 1.2 | 1.28 | 0.24 | 0.17 | 0.205 | 0.236 | 0.588 | 0.717 | 0.451 | 0.561 | – | – | – | 0.266 | 0.621 | – | – |
